In brackets after ≈: the same amount, converted by molar mass. Activity calls are given as the source filed them.

Test [1] has as its system Staphylococcus aureus. Description: Antimicrobial activity against Staphylococcus aureus ATCC 29213 by broth dilution method. The format is functional. (Dilution methods test growth across graded concentrations, often in twofold steps.)
Test [2] deals with Staphylococcus epidermidis. In words: Antimicrobial activity against Staphylococcus epidermidis ATCC 12228 by broth dilution method. The test is classed as functional.
In test [3] the test system is Escherichia coli. In words: Antimicrobial activity against Escherichia coli ATCC 11229 by broth dilution method. The format is functional.
The test system of test [4] is Pseudomonas aeruginosa. Description: Antimicrobial activity against Pseudomonas aeruginosa ATCC 27853 by broth dilution method. The format is functional.
The test system of test [5] is Staphylococcus aureus. In words: Bactericidal activity against Staphylococcus aureus ATCC 29213 after 24 hrs. The format is functional. Particulars: ATCC 29213, 24 h.
Test [6] has as its system Staphylococcus epidermidis. Description: Bactericidal activity against Staphylococcus epidermidis ATCC 12228 after 24 hrs. The format is functional. Particulars: ATCC 12228, 24 h.
The test system of test [7] is Escherichia coli. In words: Bactericidal activity against Escherichia coli ATCC 11229 after 24 hrs. The format is functional. The following applies: ATCC 11229, 24 h.
For test [8], the system named is Pseudomonas aeruginosa. In words: Bactericidal activity against Pseudomonas aeruginosa ATCC 27853 after 24 hrs. Particulars: ATCC 27853, 24 h. The test is classed as functional.
A further test relates to Candida albicans. In words: Antifungal activity against Candida albicans ATCC 18804 by broth microdilution method. The test is classed as functional.
The test system of a further test is Candida tropicalis. In words: Antifungal activity against Candida tropicalis ATCC 750 by broth microdilution method. The test is classed as functional.
For another test, the system named is Nakaseomyces glabratus. In words: Antifungal activity against Candida glabrata ATCC 90030 by broth microdilution method. The test is classed as functional.
In another test the test system is Candida parapsilosis. Description: Antifungal activity against Candida parapsilosis ATCC 22019 by broth microdilution method. The test is classed as functional. The following applies: Lodderomyces parapsilosis.
The subject of test [9] is Staphylococcus aureus. Description: Bactericidal activity against methicillin-resistant Staphylococcus aureus clinical isolate 1 after 24 hrs. The following applies: isolate 1, 24 h. The format is functional.
In test [10] the test system is Staphylococcus aureus. In words: Bactericidal activity against methicillin-resistant Staphylococcus aureus clinical isolate 2 after 24 hrs. The format is functional. Particulars: isolate 2, 24 h.
In test [11] the test system is Staphylococcus aureus. Description: Bactericidal activity against methicillin-resistant Staphylococcus aureus clinical isolate 3 after 24 hrs. The format is functional. Particulars: isolate 3, 24 h.
Test [12] relates to Staphylococcus aureus. Description: Bactericidal activity against methicillin-resistant Staphylococcus aureus clinical isolate 4 after 24 hrs. The format is functional. Particulars: isolate 4, 24 h.
Test [13] deals with Staphylococcus aureus. Description: Bactericidal activity against methicillin-resistant Staphylococcus aureus clinical isolate 5 after 24 hrs. The test is classed as functional. The following applies: isolate 5, 24 h.
The test system of test [14] is Staphylococcus aureus. Description: Bactericidal activity against methicillin-resistant Staphylococcus aureus clinical isolate 6 after 24 hrs. The format is functional. The following applies: isolate 6, 24 h.
The subject of test [15] is Staphylococcus aureus. In words: Bactericidal activity against methicillin-resistant Staphylococcus aureus clinical isolate 7 after 24 hrs. The test is classed as functional. The following applies: isolate 7, 24 h.
For test [16], the system named is Staphylococcus aureus. Description: Bactericidal activity against methicillin-resistant Staphylococcus aureus clinical isolate 8 after 24 hrs. The format is functional. The following applies: isolate 8, 24 h.
In test [17] the test system is Staphylococcus aureus. Description: Bactericidal activity against methicillin-resistant Staphylococcus aureus clinical isolate 9 after 24 hrs. The following applies: isolate 9, 24 h. The test is classed as functional.
Test [18] deals with Staphylococcus aureus. Description: Bactericidal activity against methicillin-resistant Staphylococcus aureus clinical isolate 10 after 24 hrs. The test is classed as functional. Particulars: isolate 10, 24 h.
In test [19] the test system is Staphylococcus aureus. Description: Bactericidal activity against methicillin-resistant Staphylococcus aureus clinical isolate 11 after 24 hrs. The format is functional. Particulars: isolate 11, 24 h.
Test [20] deals with Staphylococcus aureus. In words: Bactericidal activity against methicillin-resistant Staphylococcus aureus clinical isolate 12 after 24 hrs. The test is classed as functional. The following applies: isolate 12, 24 h.
Test [21] concerns Staphylococcus aureus. In words: Bactericidal activity against methicillin-resistant Staphylococcus aureus clinical isolate 13 after 24 hrs. The format is functional. Particulars: isolate 13, 24 h.
Test [22] concerns Staphylococcus aureus. Description: Bactericidal activity against methicillin-resistant Staphylococcus aureus clinical isolate 14 after 24 hrs. The format is functional. Particulars: isolate 14, 24 h.
Test [23] deals with Staphylococcus aureus. In words: Bactericidal activity against methicillin-resistant Staphylococcus aureus clinical isolate 15 after 24 hrs. The test is classed as functional. Particulars: isolate 15, 24 h.
Test [24] relates to Staphylococcus aureus. Description: Bactericidal activity against methicillin-resistant Staphylococcus aureus clinical isolate 16 after 24 hrs. The format is functional. The following applies: isolate 16, 24 h.
In test [25] the test system is Staphylococcus aureus. Description: Bactericidal activity against methicillin-resistant Staphylococcus aureus clinical isolate 17 after 24 hrs. Particulars: isolate 17, 24 h. The format is functional.
For test [26], the system named is Staphylococcus aureus. In words: Bactericidal activity against methicillin-resistant Staphylococcus aureus clinical isolate 18 after 24 hrs. The test is classed as functional. The following applies: isolate 18, 24 h.
Test [27] relates to Staphylococcus aureus. Description: Bactericidal activity against methicillin-resistant Staphylococcus aureus clinical isolate 19 after 24 hrs. The format is functional. The following applies: isolate 19, 24 h.
In test [28] the test system is Staphylococcus aureus. Description: Bactericidal activity against methicillin-resistant Staphylococcus aureus clinical isolate 20 after 24 hrs. The test is classed as functional. Particulars: isolate 20, 24 h.
For test [29], the system named is Staphylococcus aureus. Description: Bactericidal activity against methicillin-resistant Staphylococcus aureus clinical isolate 21 after 24 hrs. The test is classed as functional. Particulars: isolate 21, 24 h.
The test system of test [30] is Escherichia coli. In words: Bacteriostatic activity against Escherichia coli ATCC 11229 after 24 hrs. The test is classed as functional, organism-based.
In test [31] the test system is Staphylococcus aureus. Description: Bacteriostatic activity against Staphylococcus aureus ATCC 29213 after 24 hrs. The test is classed as functional, organism-based.
The test system of test [32] is Pseudomonas aeruginosa. In words: Bacteriostatic activity against Pseudomonas aeruginosa ATCC 27853 after 24 hrs. The format is functional, organism-based.

`CCCCCCCCCCCC(=O)NCCCCN`: the MIC in the test with Staphylococcus aureus [1] came out at 64 µg/mL (≈ 237 µM); in [2], 16 µg/mL (≈ 59.2 µM); against Escherichia coli [3] it was 64 µg/mL (≈ 237 µM); against Pseudomonas aeruginosa [4] it was 32 µg/mL (≈ 118 µM); in the test on Candida albicans, 256 µg/mL (≈ 947 µM); in the test with Candida tropicalis it was 128 µg/mL (≈ 473 µM). The MIC worked out at 1020 µg/mL (≈ 3790 µM) against Nakaseomyces glabratus and 256 µg/mL (≈ 947 µM) with Candida parapsilosis. In addition, the MBC in the test on Staphylococcus aureus [5] was found to be 512 µg/mL (≈ 1890 µM); in test [6], 16 µg/mL (≈ 59.2 µM); with Escherichia coli [7], 64 µg/mL (≈ 237 µM); against Pseudomonas aeruginosa [8] it was 32 µg/mL (≈ 118 µM).
As for `CCCCCCCCCCCCCCCC(=O)NCCN`, the MIC against Staphylococcus aureus [1] was greater than 1020 µg/mL; in [2], greater than 1020 µg/mL; against Escherichia coli [3], greater than 1020 µg/mL; against Pseudomonas aeruginosa [4], greater than 1020 µg/mL; in the test with Candida albicans, 4 µg/mL (≈ 13.4 µM); against Candida tropicalis it was 16 µg/mL (≈ 53.6 µM). For the same molecule, the MIC amounted to 8 µg/mL (≈ 26.8 µM) against Nakaseomyces glabratus and 4 µg/mL (≈ 13.4 µM) against Candida parapsilosis.
As to `CN[C@H](CC(C)C)C(=O)N[C@H]1C(=O)N[C@@H](CC(N)=O)C(=O)N[C@H]2C(=O)N[C@H]3C(=O)N[C@H](C(=O)N[C@H](C(=O)O)c4cc(O)cc(O)c4-c4cc3ccc4O)[C@H](O)c3ccc(c(Cl)c3)Oc3cc2cc(c3O[C@@H]2O[C@H](CO)[C@@H](O)[C@H](O)[C@H]2O[C@H]2C[C@](C)(N)[C@H](O)[C@H](C)O2)Oc2ccc(cc2Cl)[C@H]1O` [VANCOMYCIN], the MBC against Staphylococcus aureus [9] was 1 µg/mL (≈ 0.69 µM); with Staphylococcus aureus [10] it was 1 µg/mL (≈ 0.69 µM); in the test on Staphylococcus aureus [11] it was 0.5 µg/mL (≈ 0.345 µM); in the test with Staphylococcus aureus [12] it was 1 µg/mL (≈ 0.69 µM); in the test with Staphylococcus aureus [13], 1 µg/mL (≈ 0.69 µM); with Staphylococcus aureus [14], 1 µg/mL (≈ 0.69 µM). Also, the minimum bactericidal concentration (MBC) in the test with Staphylococcus aureus [15] was determined as 1 µg/mL (≈ 0.69 µM); in the test with Staphylococcus aureus [16], 0.5 µg/mL (≈ 0.345 µM); against Staphylococcus aureus [17], 1 µg/mL (≈ 0.69 µM); against Staphylococcus aureus [18], 1 µg/mL (≈ 0.69 µM); with Staphylococcus aureus [19] it was 1 µg/mL (≈ 0.69 µM); in the test with Staphylococcus aureus [20], 1 µg/mL (≈ 0.69 µM). Further, the MBC with Staphylococcus aureus [21] turned out to be 1 µg/mL (≈ 0.69 µM); in the test on Staphylococcus aureus [22], 1 µg/mL (≈ 0.69 µM); with Staphylococcus aureus [23], 1 µg/mL (≈ 0.69 µM); in the test on Staphylococcus aureus [24], 1 µg/mL (≈ 0.69 µM); in the test with Staphylococcus aureus [25], 0.5 µg/mL (≈ 0.345 µM); against Staphylococcus aureus [26] it was 1 µg/mL (≈ 0.69 µM). Also, the minimum bactericidal concentration (MBC) with Staphylococcus aureus [27], against Staphylococcus aureus [28] and in the test on Staphylococcus aureus [29] was 0.5 µg/mL (≈ 0.345 µM) each time.
On to `CCCCCCCCCCCCCCCC(=O)NCCCN`, for which the MIC was greater than 1020 µg/mL against Staphylococcus aureus [1]; 4 µg/mL (≈ 12.8 µM) in [2]; 32 µg/mL (≈ 102 µM) against Escherichia coli [3]; greater than 1020 µg/mL against Pseudomonas aeruginosa [4]; 64 µg/mL (≈ 205 µM) with Candida albicans; 16 µg/mL (≈ 51.2 µM) against Candida tropicalis. In addition, the MIC in the test on Nakaseomyces glabratus and in the test with Candida parapsilosis was 8 µg/mL (≈ 25.6 µM) each time. The same molecule yielded an MBC in test [6] of 64 µg/mL (≈ 205 µM). Further, in the test on Escherichia coli [30], the outcome was Active.
Take `CCCCCCCCCCCCCC(=O)NCCCCN`: the minimum inhibitory concentration (MIC) against Staphylococcus aureus [1] was 16 µg/mL (≈ 53.6 µM); in [2] it was 16 µg/mL (≈ 53.6 µM); against Escherichia coli [3] it was 256 µg/mL (≈ 858 µM); with Pseudomonas aeruginosa [4], 1020 µg/mL (≈ 3430 µM); in the test with Candida albicans it was 16 µg/mL (≈ 53.6 µM); against Candida tropicalis it was 64 µg/mL (≈ 214 µM). Besides, the results for the MIC against Nakaseomyces glabratus and in the test with Candida parapsilosis were 32 µg/mL (≈ 107 µM) and 128 µg/mL (≈ 429 µM), respectively. Besides, the MBC against Staphylococcus aureus [5] came to 1020 µg/mL (≈ 3430 µM); in [6], 32 µg/mL (≈ 107 µM); with Escherichia coli [7], 1020 µg/mL (≈ 3430 µM); in the test on Pseudomonas aeruginosa [8], 1020 µg/mL (≈ 3430 µM).
In the case of `CCCCCCCC/C=C\CCCCCCCC(=O)NCCCCN`, the MIC is 16 µg/mL (≈ 45.4 µM) with Staphylococcus aureus [1]; 4 µg/mL (≈ 11.3 µM) in [2]; 8 µg/mL (≈ 22.7 µM) against Escherichia coli [3]; greater than 1020 µg/mL with Pseudomonas aeruginosa [4]; 2 µg/mL (≈ 5.67 µM) in the test with Candida albicans; 4 µg/mL (≈ 11.3 µM) with Candida tropicalis. Also, the values for the MIC in the test with Nakaseomyces glabratus and in the test on Candida parapsilosis were 2 µg/mL (≈ 5.67 µM) and 1 µg/mL (≈ 2.84 µM), respectively. This molecule also returned an MBC in [6] of 128 µg/mL (≈ 363 µM). In addition, the outcome with Staphylococcus aureus [31], in the test with Escherichia coli [30] and with Pseudomonas aeruginosa [32] was Active.

Usually MIC stands for the smallest concentration in the dilution series that meets the test's criterion for growth inhibition. Lower therefore signals inhibition by little substance. As a reminder, the MBC is the smallest concentration meeting the test's criterion for killing.
